Patent US20240246920A1, “TRIAZOLE DERIVATIVES WITH ANTIFUNGAL ACTIVITY” (King's College London, priority 2020, published 2024)
≈ marks a conversion by molar mass, not a printed value. Like-named read-outs stand apart in the source and are kept apart here.

Experiments:
[1] = system: C. krusei NCPF3876; experiment: microbe, parasite or virus in culture; assay type: cell-based, Candida krusei; conditions: Pichia kudriavzevii
Procedure: (§1) The minimum inhibitory concentration of test compounds were determined in a panel of Candida species (see Table 4 below), using the a serial dilution method in 96-well plates using the following protocol.
(§2) Starter cultures of fungal strains to be tested were grown in 3 mL of RPMI 2% glucose media incubated at 37° C. with shaking at 200 rpm overnight. The culture media used was 900 mL H2O; 10.4 g RPMI 1640 (with L-glutamine and a pH indicator but without bicarbonate); 34.5 g MOPS and 18 g glucose. The pH of the media was adjusted to 7.0 with 1 M sodium hydroxide.
(§3) Solutions of the compound to be tested were prepared by dissolving the compound in DMSO and subsequently into media to the desired concentrations. […] The last two rows of each plate were control rows containing the culture media alone and the media plus fungi.
(§4) The fungi starter cultures were diluted 1:10 in water in cuvettes. This was then further diluted to an optical density (OD600) of 0.01 in media. 100 μL of the fungi was added to each well giving a starting concentration of fungus of 0.5-5×10^5/mL. One species of fungus was used on each plate. The plates were then held at 37° C. for 24 hours.
(§5) A plate reader was used to measure growth in each well at OD530 nm and the MIC was determined for each test compound. The MIC is defined as the lowest concentration giving rise to inhibition of ≥50% of that of the drug-free control well containing the fungus and media.

[2] = system: C. albicans NCPF3281; experiment: Candida panel MIC, serial dilution in 96-well plates; assay type: cell-based, Candida albicans; conditions: NCPF3281, read-out: MIC C. albicans NCPF3281
Procedure: as §1, §2
(§6) Solutions of the compound to be tested were prepared by dissolving the compound in DMSO and subsequently into media to the desired concentrations. 200 μL of compound solution was then added to the wells of the 96-well plate using a serial dilution method row-by row of the plate to give a compound concentration gradient across the plate of from 128 μg/mL to 0.25 μg/mL. The last two rows of each plate were control rows containing the culture media alone and the media plus fungi.
as §4, §5

[3] = system: Candida auris TDG2512; experiment: as above; assay type: cell-based; conditions: Candidozyma auris, TDG2512; Table 4, extended panel; 24 hours, ≥50% inhibition; read-out: MIC Candida auris TDG2512
Procedure: as §1, §2, §6, §4, §5

[4] = system: C. auris TDG1912; experiment: as above; assay type: cell-based; conditions: Candidozyma auris, TDG1912; Table 4; 24 hours, ≥50% inhibition; read-out: MIC C. auris TDG1912
Procedure: as §1, §2, §6, §4, §5

[5] = system: C. tropicalis NCPF8760; experiment: as above; assay type: cell-based
Procedure: as §1, §2, §6, §4, §5

[6] = system: Candida auris TDG1102; experiment: as above; assay type: cell-based; conditions: Candidozyma auris, TDG1102; Table 4, extended panel; 24 hours, ≥50% inhibition; read-out: MIC Candida auris TDG1102
Procedure: as §1, §2, §6, §4, §5

[7] = system: Candida auris TDG2211; experiment: microbe, parasite or virus in culture; assay type: cell-based; conditions: Candidozyma auris, TDG2211; Table 4, extended panel; 24 hours, ≥50% inhibition; read-out: MIC Candida auris TDG2211
Procedure: as §1, §2, §3, §4, §5
(§7) The Candida auris strains shown in Table 7 were either taken from the National Collection of Pathogenic Fungi (NCPF) or collected as part of ongoing surveillance studies. The strains were characterised as follows.

[8] = system: Candida auris TDG2506; experiment: microbe, parasite or virus in culture; assay type: cell-based; conditions: Candidozyma auris, TDG2506; Table 4, extended panel; 24 hours, ≥50% inhibition; read-out: MIC Candida auris TDG2506
Procedure: as §1, §2, §3, §4, §5, §7

[9] = system: C. albicans 8112; experiment: Candida albicans panel MIC; assay type: cell-based; conditions: Table 6, Candida albicans panel
Procedure: as §1, §2, §6, §4, §5
(§8) The compounds shown in Table 6 were tested against a further panel of Candida albicans.

[10] = system: C. albicans 3990; experiment: Candida albicans panel MIC; assay type: cell-based; conditions: Table 6, Candida albicans panel
Procedure: as §1, §2, §6, §4, §5, §8

[11] = system: C. albicans 3363; experiment: Candida albicans panel MIC; assay type: cell-based; conditions: Table 6, Candida albicans panel
Procedure: as §1, §2, §6, §4, §5, §8

[12] = system: C. albicans 3881; experiment: Candida albicans panel MIC; assay type: cell-based; conditions: Table 6, Candida albicans panel
Procedure: as §1, §2, §6, §4, §5, §8

[13] = system: C. albicans 3880; experiment: Candida albicans panel MIC; assay type: cell-based; conditions: Table 6, Candida albicans panel
Procedure: as §1, §2, §6, §4, §5, §8

[14] = system: C. albicans 3882; experiment: Candida albicans panel MIC; assay type: cell-based; conditions: Table 6, Candida albicans panel
Procedure: as §1, §2, §6, §4, §5, §8

[15] = system: C. albicans 3645; experiment: Candida albicans panel MIC; assay type: cell-based; conditions: Table 6, Candida albicans panel
Procedure: as §1, §2, §6, §4, §5, §8

[16] = system: C. glabrata NCPF8018; experiment: Candida panel MIC, serial dilution in 96-well plates; assay type: cell-based, Candida glabrata; conditions: Nakaseomyces glabratus
Procedure: as §1, §2, §3, §4, §5

[17] = system: C. auris 8977; experiment: as above; assay type: cell-based, Candida auris; conditions: Candidozyma auris, 8977; Table 4, extended panel; 24 hours, ≥50% inhibition; read-out: MIC C. auris 8977
Procedure: as §1, §2, §3, §4, §5, §7

[18] = system: C. auris 8984; experiment: as above; assay type: cell-based, Candida auris; conditions: Candidozyma auris, 8984; Table 4, extended panel; 24 hours, ≥50% inhibition; read-out: MIC C. auris 8984
Procedure: as §1, §2, §3, §4, §5, §7

[19] = system: C. auris 8971; experiment: as above; assay type: cell-based, Candida auris; conditions: Candidozyma auris, 8971; Table 4, extended panel; 24 hours, ≥50% inhibition; read-out: MIC C. auris 8971
Procedure: as §1, §2, §3, §4, §5, §7

[20] = system: C. parapsilosis NCPF3209; experiment: microbe, parasite or virus in culture; assay type: cell-based, Candida parapsilosis; conditions: Lodderomyces parapsilosis
Procedure: as §1, §2, §3, §4, §5

[21] = NCPF3876, Table 4, common panel, 24 hours, ≥50% inhibition, read-out: MIC C. krusei NCPF3876
[22] = Candida albicans, Table 4, common panel, 24 hours, ≥50% inhibition
[23] = Table 6, Candida albicans panel
[24] = NCPF8760, Table 4, common panel, 24 hours, ≥50% inhibition, read-out: MIC C. tropicalis NCPF8760
[25] = NCPF8018, Table 4, common panel, 24 hours, ≥50% inhibition, read-out: MIC C. glabrata NCPF8018
[26] = NCPF3209, Table 4, common panel, 24 hours, ≥50% inhibition, read-out: MIC C. parapsilosis NCPF3209
[27] = NCPF3876, read-out: MIC C. Krusei NCPF3876
[28] = NCPF8760, read-out: MIC C. Tropicalis NCPF8760
[29] = NCPF8018, read-out: MIC C. Glabrata NCPF8018
[30] = NCPF3209, read-out: MIC C. Parapsilosis NCPF3209

SMILES | MIC [1, 21] [µg/mL] | MIC [2, 22] [µg/mL] | MIC [2, 23] [µg/mL] | MIC [3] [µg/mL] | MIC [4] [µg/mL] | MIC [5, 24] [µg/mL] | MIC [6] [µg/mL] | MIC [7] [µg/mL] | MIC [8] [µg/mL] | MIC [9] [µg/mL] | MIC [10] [µg/mL] | MIC [11] [µg/mL] | MIC [12] [µg/mL] | MIC [13] [µg/mL] | MIC [14] [µg/mL] | MIC [16, 25] [µg/mL] | MIC [17] [µg/mL] | MIC [18] [µg/mL] | MIC [19] [µg/mL] | MIC [20, 26] [µg/mL] | further results
OC(CN1CCC(Nc2ccc(Cc3ccccc3)cc2)CC1)(Cn1cncn1)c1ccc(F)cc1F (centres unmarked) [Example 11, 1-(4-((4-benzylphenyl)amino)piperidin-1-yl)-2-(2,4-difluorophenyl)-3-(1H-1,2,4-triazol-1-yl)propan-2-ol] | ≤ 0.125 | ≤ 0.125 | ≤ 0.00098 | ≤ 0.125 | 0.125 (≈ 0.248 µM) | ≤ 0.125 | ≤ 0.125 | ≤ 0.125 | ≤ 0.125 | 0.00195 (≈ 0.00387 µM) | 0.0039 to 0.0625 (≈ 0.00774 to 0.124 µM) | 0.0156 (≈ 0.031 µM) | 0.0313 (≈ 0.0622 µM) | 0.0313 (≈ 0.0622 µM) | 0.0625 (≈ 0.124 µM) | ≤ 0.125 | ≤ 0.125 | ≤ 0.125 | ≤ 0.125 | ≤ 0.125 | MIC [15]: 0.00391 µg/mL (≈ 0.00776 µM)
OC(CN1CCC(N2CCC(Nc3ccc(Cc4ccccc4)cc3)CC2)CC1)(Cn1cncn1)c1ccc(F)cc1F (centres unmarked) [Example 12, 1-(4-((4-benzylphenyl)amino)-[1,4′-bipiperidin]-1′-yl)-2-(2,4-difluorophenyl)-3-(1H-1,2,4-triazol-1-yl)propan-2-ol] | ≤ 0.125 | ≤ 0.125 | 0.002 to 0.004 (≈ 0.00341 to 0.00682 µM) | ≤ 0.125 | 0.125 (≈ 0.213 µM) | ≤ 0.125 | ≤ 0.125 | ≤ 0.125 | ≤ 0.125 | 0.00391 (≈ 0.00666 µM) | 0.0313 (≈ 0.0533 µM) | 0.0625 (≈ 0.107 µM) | 0.0625 (≈ 0.107 µM) | 0.0313 (≈ 0.0533 µM) | 0.0625 (≈ 0.107 µM) | 0.125 (≈ 0.213 µM) | ≤ 0.125 | ≤ 0.125 | ≤ 0.125 | ≤ 0.125 | MIC [1, 27]: ≤ 0.125 µg/mL; MIC [5, 28]: ≤ 0.125 µg/mL; MIC [15]: 0.00391 µg/mL (≈ 0.00666 µM); MIC [16, 29]: 0.25 µg/mL (≈ 0.426 µM); MIC [20, 30]: ≤ 0.125 µg/mL
OC(CN1CCC2(CCC(Nc3ccc(Cc4ccccc4)cc3)CC2)C1)(Cn1cncn1)c1ccc(F)cc1F (centres unmarked) [Example 13, 1-(8-((4-benzylphenyl)amino)-2-azaspiro[4.5]decan-2-yl)-2-(2,4-difluorophenyl)-3-(1H-1,2,4-triazol-1-yl)propan-2-ol] | ≤ 0.125 | ≤ 0.125 | ≤ 0.00098 | ≤ 0.125 | 0.25 (≈ 0.448 µM) | ≤ 0.125 | ≤ 0.125 | ≤ 0.125 | ≤ 0.125 | 0.00049 to 0.00391 (≈ 0.000879 to 0.00701 µM) | 0.0625 (≈ 0.112 µM) | 0.125 (≈ 0.224 µM) | 0.25 (≈ 0.448 µM) | 0.25 (≈ 0.448 µM) | 0.0313 to 2 (≈ 0.0561 to 3.59 µM) | 0.25 (≈ 0.448 µM) | ≤ 0.125 | ≤ 0.125 | ≤ 0.125 | ≤ 0.125 | MIC [15]: 0.00781 µg/mL (≈ 0.014 µM)
OC(CN1CCC(Nc2ccc(OCc3ccccc3)cc2)CC1)(Cn1cncn1)c1ccc(F)cc1F (centres unmarked) [Example 90] | 0.0313 (≈ 0.0602 µM) | 0.00391 (≈ 0.00753 µM) | 0.00391 (≈ 0.00753 µM) | 0.00391 (≈ 0.00753 µM) | – | 0.0625 (≈ 0.12 µM) | 0.0156 (≈ 0.0301 µM) | 0.003 (≈ 0.00577 µM) | 0.003 (≈ 0.00577 µM) | 0.00391 (≈ 0.00753 µM) | 0.0039 (≈ 0.00751 µM) | 0.008 to 0.03 (≈ 0.0154 to 0.0577 µM) | 0.0078 to 0.0313 (≈ 0.015 to 0.0602 µM) | 0.00391 (≈ 0.00753 µM) | 0.00391 (≈ 0.00753 µM) | 0.0625 (≈ 0.12 µM) | 0.00781 (≈ 0.015 µM) | 0.003 (≈ 0.00577 µM) | 0.003 (≈ 0.00577 µM) | 0.00391 (≈ 0.00753 µM) | MIC [1, 27]: 0.0313 µg/mL (≈ 0.0602 µM); MIC [5, 28]: 0.0625 µg/mL (≈ 0.12 µM); MIC [15]: 0.00391 µg/mL (≈ 0.00753 µM); MIC [16, 29]: 0.0625 µg/mL (≈ 0.12 µM); MIC [20, 30]: 0.00391 µg/mL (≈ 0.00753 µM)
OC(CN1CCC(N2CCC(Nc3ccc(OCCN4CCOCC4)cc3)CC2)CC1)(Cn1cncn1)c1ccc(F)cc1F (centres unmarked) [Example 92] | > 32 | 2 (≈ 3.2 µM) | – | 4 (≈ 6.39 µM) | 32 (≈ 51.1 µM) | > 32 | 32 (≈ 51.1 µM) | 8 to 32 (≈ 12.8 to 51.1 µM) | 32 (≈ 51.1 µM) | – | – | – | – | – | – | > 32 | 8 (≈ 12.8 µM) | 32 (≈ 51.1 µM) | 16 (≈ 25.6 µM) | 2 to 8 (≈ 3.2 to 12.8 µM) | –
